Values joined by “and” are separate entries in the source; they are usually repeats but may differ in a detail not shown here. Equal values may be shown once. Inconclusive results and toxic doses are left out.

The results in this text go back to PubChem BioAssay AID328 (DTP/NCI, 2004).

For this test, the system named is BDF1 mice, P388 leukemia ip, median survival T/C. Put plainly: NCI In Vivo Anticancer Drug Screen. Data for tumor model P388 Leukemia (intraperitoneal) in B6D2F1 (BDF1) mice. The settings on record: endpoint: median survival time, higher = longer survival. An outline of the steps: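 Antitumour effect was judged in vivo: survival in drug-treated mice, normalised to that of vehicle-dosed controls, gives the reported T/C.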

Where [1] appears, read: dose: 25.0 mg/kg/injection, schedule: Q01DX009 (ip), vehicle: saline.
[2] abbreviates: dose: 50.0 mg/kg/injection, schedule: Q01DX009 (ip), vehicle: saline.
Setting [3] is: dose: 100.0 mg/kg/injection, schedule: Q01DX009 (ip), vehicle: saline.
Setting [4] is: dose: 100.0 mg/kg/injection, schedule: Q01DX009 (ip), vehicle: saline with Tween-80.
Setting [5] is: dose: 25.0 mg/kg/injection, schedule: Q01DX009 (ip), vehicle: saline with Tween-80.
Setting [6] is: dose: 50.0 mg/kg/injection, schedule: Q01DX009 (ip), vehicle: saline with Tween-80.
The mark [7] stands for this setting: dose: 100.0 mg/kg/injection, schedule: Q04DX003 (ip), vehicle: Klucel (hydroxypropylcellulose) (HPC).
Where [8] appears, read: dose: 100.0 mg/kg/injection, schedule: Q04DX003 (ip), vehicle: saline with Tween-80.
[9] abbreviates: dose: 200.0 mg/kg/injection, schedule: Q04DX003 (ip), vehicle: saline with Tween-80.
Setting [10] is: dose: 100.0 mg/kg/injection, schedule: Q01DX009 (ip), vehicle: Klucel (hydroxypropylcellulose) (HPC).
[11] abbreviates: dose: 200.0 mg/kg/injection, schedule: Q01DX009 (ip), vehicle: Klucel (hydroxypropylcellulose) (HPC).
The mark [12] stands for this setting: dose: 200.0 mg/kg/injection, schedule: Q04DX003 (ip), vehicle: Klucel (hydroxypropylcellulose) (HPC).
Where [13] appears, read: dose: 400.0 mg/kg/injection, schedule: Q01DX009 (ip), vehicle: Klucel (hydroxypropylcellulose) (HPC).
[14] abbreviates: dose: 400.0 mg/kg/injection, schedule: Q04DX003 (ip), vehicle: Klucel (hydroxypropylcellulose) (HPC).
[15] abbreviates: dose: 50.0 mg/kg/injection, schedule: Q04DX003 (ip), vehicle: saline.
[16] abbreviates: dose: 100.0 mg/kg/injection, schedule: Q04DX003 (ip), vehicle: saline.

Take `CCN(CC)C(C)CN1c2ccccc2Sc2ccccc21` (configuration not stated): the T/C under setting [1] was 100 % of control, the T/C under setting [2] is 112 % of control and the T/C under setting [3] was 116 % of control.

On to `CC(=O)OC(C(=O)N(c1ccccc1)c1ccccc1)c1ccccc1` (configuration not stated), for which the T/C is, setting by setting: under setting [4], 92 % of control; (dose: 400.0 mg/kg/injection, schedule: Q01DX009 (ip), vehicle: saline with Tween-80) 96 % of control.

As to `S=c1nc[nH]c2c1ncn2CN1CCCCC1`, the T/C is 122 % of control (dose: 66.0 mg/kg/injection, schedule: Q01DX009 (ip), vehicle: saline with Tween-80) and 154 % of control (dose: 150.0 mg/kg/injection, schedule: Q01DX009 (ip), vehicle: saline with Tween-80).

In the case of `C=CC(=O)NCCCC(=O)O`, the T/C under setting [2] is 94 % of control; the T/C under setting [3] is 91 % of control; the T/C (dose: 200.0 mg/kg/injection, schedule: Q01DX009 (ip), vehicle: saline) is 100 % of control.

On to `CC(C)([NH-])CO.CC(C)([NH-])CO.[Cl][Cd][Cl]`, for which the T/C by setting is: (dose: 5.0 mg/kg/injection, schedule: Q01DX009 (ip), vehicle: saline) 120 % of control; (dose: 6.25 mg/kg/injection, schedule: Q04DX003 (ip), vehicle: saline sonified) 104 % of control; (dose: 10.0 mg/kg/injection, schedule: Q01DX009 (ip), vehicle: saline) 120 % of control; (dose: 10.0 mg/kg/injection, schedule: Q04DX003 (ip), vehicle: saline) 109 % of control; (dose: 12.5 mg/kg/injection, schedule: Q04DX003 (ip), vehicle: saline sonified) 108 % of control; (dose: 20.0 mg/kg/injection, schedule: Q04DX003 (ip), vehicle: saline) 95 % of control.

Regarding `O=C(CN1CCCCC1)Nc1nc(-c2ccc(Cl)cc2)cs1`, under “dose: 100.0 mg/kg/injection, schedule: Q01DX005 (ip), vehicle: saline with Tween-80”, the T/C is 91 % of control.

`CCCCCCCCCCCCCCCCCCCCCCCCCCCC(=O)OCC(O)CO` (configuration not stated): the T/C is 110 % of control (dose: 0.25 mg/kg/injection, schedule: Q01DX009 (ip), vehicle: saline + alcohol) and 105 % of control (dose: 1.0 mg/kg/injection, schedule: Q01DX009 (ip), vehicle: saline + alcohol).

In the case of `O=[N+]([O-])c1cc([N+](=O)[O-])c2ccccc2c1NS(=O)(=O)/C=C/c1ccccc1`, the T/C by setting is: under setting [5], 104 % of control; under setting [6], 112 % of control; under setting [4], 111 % of control.

Take `O=C(OCC1OC(n2cnc3c(=O)[nH]c(=O)[nH]c32)C(OC(=O)c2ccccc2)C1OC(=O)c1ccccc1)c1ccccc1` (configuration not stated): the T/C (dose: 50.0 mg/kg/injection, schedule: Q01DX010 (ip), vehicle: saline with Tween-80) is 100 % of control; the T/C (dose: 100.0 mg/kg/injection, schedule: Q01DX010 (ip), vehicle: saline with Tween-80) was 90 % of control; the T/C (dose: 200.0 mg/kg/injection, schedule: Q01DX010 (ip), vehicle: saline with Tween-80) is 90 % of control; the T/C (dose: 400.0 mg/kg/injection, schedule: Q01DX010 (ip), vehicle: saline with Tween-80) was 90 % of control.

Turning to `Cc1noc2nccnc12`, the T/C is, setting by setting: under setting [5], 95 % of control; under setting [6], 95 % of control.

Consider `c1cc[c]([Sn]([O][Sn]([c]2ccccc2)([c]2ccccc2)[c]2ccccc2)([c]2ccccc2)[c]2ccccc2)cc1`, for which, where the note is “dose: 25.0 mg/kg/injection, schedule: Q04DX003 (ip), vehicle: saline with Tween-80”, the T/C is 95 % of control.

Consider `Cc1cc(N(CCC(=O)O)CCC(=O)O)ccc1/C=C/c1ccc2cc(Cl)ccc2[n+]1C`, for which the T/C (dose: 12.5 mg/kg/injection, schedule: Q01DX001 (ip), vehicle: saline with Tween-80) is 96 % of control; the T/C (dose: 25.0 mg/kg/injection, schedule: Q01DX001 (ip), vehicle: saline with Tween-80) was 96 % of control; the T/C (dose: 50.0 mg/kg/injection, schedule: Q01DX001 (ip), vehicle: saline with Tween-80) is 94 % of control.

Turning to `COc1cccc2c1C(=O)c1c(O)c3c(c(O)c1C2=O)C[C@@](O)(/C(C)=N/NC(=O)c1ccc(Cl)c(Cl)c1)C[C@@H]3OC1CC(N)C(O)C(C)O1` (some centres not stated), the T/C runs as follows: (dose: 0.5 mg/kg/injection, schedule: Q01DX009 (ip), vehicle: water) 202 % of control; (dose: 1.0 mg/kg/injection, schedule: Q01DX009 (ip), vehicle: water) 234 % of control and 156 % of control; (dose: 2.0 mg/kg/injection, schedule: Q01DX009 (ip), vehicle: water) 295 % of control and 186 % of control; (dose: 4.0 mg/kg/injection, schedule: Q01DX009 (ip), vehicle: water) 295 % of control and 186 % of control.

As for `COC(=O)C(CCC(=O)O)NC(=O)OCc1ccccc1` (configuration not stated), the T/C is, setting by setting: (dose: 25.0 mg/kg/injection, schedule: Q04DX003 (ip), vehicle: Klucel (hydroxypropylcellulose) (HPC)) 104 % of control; (dose: 50.0 mg/kg/injection, schedule: Q04DX003 (ip), vehicle: Klucel (hydroxypropylcellulose) (HPC)) 113 % of control; under setting [7], 95 % of control and 109 % of control.

In the case of `CC(=O)N(C)c1ccc(/C=C2\C=Cc3ccccc32)cc1`, the T/C under setting [4] was 100 % of control; the T/C under setting [8] was 90 % of control; the T/C (dose: 200.0 mg/kg/injection, schedule: Q01DX009 (ip), vehicle: saline with Tween-80) is 95 % of control; the T/C under setting [9] is 100 % of control.

Take `CC1SC(c2ccccc2)N(c2ccccc2)C1=O` (configuration not stated): the T/C is, setting by setting: under setting [10], 104 % of control; under setting [7], 104 % of control; under setting [11], 116 % of control; under setting [12], 104 % of control; under setting [13], 100 % of control; under setting [14], 109 % of control.

In the case of `CCn1c(O)c(C=N)c(=O)n(CC)c1=O`, the T/C by setting is: under setting [1], 100 % of control; (dose: 25.0 mg/kg/injection, schedule: Q04DX003 (ip), vehicle: saline) 96 % of control; under setting [2], 104 % of control; under setting [15], 100 % of control; under setting [16], 103 % of control.

`CC(=O)N(C)c1ccc(N)cc1`: the T/C was 100 % of control under setting [16]; 100 % of control (dose: 200.0 mg/kg/injection, schedule: Q04DX003 (ip), vehicle: saline); 109 % of control (dose: 400.0 mg/kg/injection, schedule: Q04DX003 (ip), vehicle: saline).

Take `CCCN(CCC)CCCCO`: the T/C was 104 % of control (dose: 22.0 mg/kg/injection, schedule: Q04DX003 (ip), vehicle: saline); 109 % of control (dose: 33.0 mg/kg/injection, schedule: Q04DX003 (ip), vehicle: saline); 104 % of control under setting [15]; 104 % of control (dose: 75.0 mg/kg/injection, schedule: Q04DX003 (ip), vehicle: saline).

Regarding `CN=C(N)NCCCCCCCCNC(N)=NC`, the T/C reads like this: (dose: 6.25 mg/kg/injection, schedule: Q01DX009 (ip), vehicle: saline) 110 % of control; (dose: 12.5 mg/kg/injection, schedule: Q01DX009 (ip), vehicle: saline) 122 % of control.

`O=C(COc1ccccc1)NCCO`: the T/C is 100 % of control under setting [10]; 91 % of control under setting [7]; 100 % of control under setting [11]; 91 % of control under setting [12]; 100 % of control under setting [13]; 91 % of control under setting [14].

On to `CC1(C)N=C(N)N=C(N)N1NC(=O)c1cccc(Cl)c1`, for which the T/C was 109 % of control (dose: 50.0 mg/kg/injection, schedule: Q04DX003 (ip), vehicle: saline sonified); 109 % of control (dose: 100.0 mg/kg/injection, schedule: Q04DX003 (ip), vehicle: saline sonified); 109 % of control (dose: 200.0 mg/kg/injection, schedule: Q04DX003 (ip), vehicle: saline sonified).

Turning to `Nc1ccc(Oc2ccc(Cl)cc2)c(Cl)c1`, the T/C is 100 % of control under setting [8]; 95 % of control under setting [9]; 104 % of control (dose: 400.0 mg/kg/injection, schedule: Q04DX003 (ip), vehicle: saline with Tween-80).

In the case of `S=P(N1CCOCC1)(N1CC1)N1CC1`, the T/C by setting is: (dose: 2.5 mg/kg/injection, schedule: Q01DX010 (ip), vehicle: saline) 109 % of control; (dose: 20.0 mg/kg/injection, schedule: Q01DX010 (ip), vehicle: saline) 155 % of control.
